The target of experiment [1] is T1, 26S proteasome non-ATPase regulatory subunit 10 (Homo sapiens) (UniProt O75832).
T1 sequence (whole entry): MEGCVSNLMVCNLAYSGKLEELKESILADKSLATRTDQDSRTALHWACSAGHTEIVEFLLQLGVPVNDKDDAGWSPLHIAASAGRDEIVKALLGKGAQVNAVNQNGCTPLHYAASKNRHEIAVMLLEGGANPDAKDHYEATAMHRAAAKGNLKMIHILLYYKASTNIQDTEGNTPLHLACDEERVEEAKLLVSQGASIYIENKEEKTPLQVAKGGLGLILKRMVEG
The experiment can be described thus: Binding affinity to recombinant human His-tagged gankyrin expressed in Escherichia coli assessed as change in melting temperature at 300 uM by SYPRO orange dye based thermal shift assay.

For experiment [2], the system named is A549. The experiment can be described thus: Cytotoxicity against human A549 cells assessed as reduction in cell viability incubated for 72 hrs by MTT assay. The experiment is classed as functional, cell-based. The following applies: A549, 72 h.
Experiment [3] relates to MDA-MB-231. The experiment can be described thus: Cytotoxicity against human MDA-MB-231 cells assessed as reduction in cell viability incubated for 72 hrs by MTT assay. It is filed as functional, cell-based. Particulars: MDA-MB-231, 72 h. On the technique in general: Tetrazolium dyes change colour on reduction, which living cells bring about.
Experiment [4] deals with HepG2. The experiment can be described thus: Cytotoxicity against human HepG2 cells assessed as reduction in cell viability incubated for 72 hrs by MTT assay. The experiment is classed as functional, cell-based. The following applies: HepG2, 72 h.
The subject of experiment [5] is Hep 3B2. The experiment can be described thus: Cytotoxicity against human Hep3B cells assessed as reduction in cell viability incubated for 72 hrs by MTT assay. It is filed as functional, cell-based.
A short description of experiment [6]: Cytotoxicity against human HuH-6 cells assessed as reduction in cell viability incubated for 72 hrs by MTT assay. The experiment is classed as functional, cell-based. The following applies: HuH-6, 72 h.
Experiment [7] has as its target T1, 26S proteasome non-ATPase regulatory subunit 10 (Homo sapiens). The experiment can be described thus: Inhibition of gankyrin in human HuH-6 cells assessed as increase in p53 level at 25 to 100 uM by immunoblot assay. Particulars: dose 25-100 µM. The experiment is classed as cell-based. On the technique in general: A western blot detects proteins with antibodies after separation by electrophoresis.

For experiment [8] the target is unchanged. The experiment can be described thus: Inhibition of gankyrin in human HuH-6 cells assessed as increase in phopho-Rb level at 25 to 100 uM by immunoblot assay. The experiment is classed as cell-based. Particulars: dose 25-100 µM.
For experiment [9] the target is unchanged. The experiment can be described thus: Inhibition of gankyrin in human Hep3B cells assessed as increase in p53 level at 12.5 to 50 uM by immunoblot assay. It is filed as cell-based. Particulars: dose 12.5-50 µM.
Experiment [10] has the same target. The experiment can be described thus: Inhibition of gankyrin in human Hep3B cells assessed as increase in CUGBP1 level at 12.5 to 50 uM by immunoblot assay. Particulars: dose 12.5-50 µM. The experiment is classed as cell-based.
The subject of experiment [11] is A549. The experiment can be described thus: Potency index, ratio of IC50 of Cjoc42 to IC50 of compound for cytotoxicity against human A549 cells assessed as reduction in cell viability incubated for 72 hrs by MTT assay. It is filed as functional.
Experiment [12] concerns MDA-MB-231. The experiment can be described thus: Potency index, ratio of IC50 of Cjoc42 to IC50 of compound for cytotoxicity against human MDA-MB-231 cells assessed as reduction in cell viability incubated for 72 hrs by MTT assay. It is filed as functional.
The subject of experiment [13] is HepG2. The experiment can be described thus: Potency index, ratio of IC50 of Cjoc42 to IC50 of compound for cytotoxicity against human HepG2 cells assessed as reduction in cell viability incubated for 72 hrs by MTT assay. It is filed as functional.
Experiment [14] deals with Hep 3B2. The experiment can be described thus: Potency index, ratio of IC50 of Cjoc42 to IC50 of compound for cytotoxicity against human Hep3B cells assessed as reduction in cell viability incubated for 72 hrs by MTT assay. The experiment is classed as functional.
A short description of experiment [15]: Potency index, ratio of IC50 of Cjoc42 to IC50 of compound for cytotoxicity against human HuH-6 cells assessed as reduction in cell viability incubated for 72 hrs by MTT assay. The experiment is classed as functional.

This is an account of results in ChEMBL document CHEMBL4819091, “Identification of novel gankyrin binding scaffolds by high throughput virtual screening” (Bioorg Med Chem Lett, 2021).

Calls of active or inactive are those of the source. The rule behind the calls is not given here.

One may read the ΔTm as the change in melting temperature against a reference sample. Broadly, the IC50 is the concentration at which inhibition is half-maximal.

For the compound `COC(=O)c1ccc(-n2cc(CCCOS(=O)(=O)c3ccc(C)cc3)nn2)cc1`, in [1], the ΔTm was 0.5 °C. Further, the IC50 is above 100 µM in experiment [2]; above 100 µM in [3]; above 100 µM in experiment [4]; above 100 µM in [5]; 70.7 µM in experiment [6].

In the case of `O=C(O)COc1ccc(CC(=O)O)cc1-c1cc(-c2ccc(Cl)cc2)n(CCc2ccccc2)n1`, in experiment [1], the ΔTm turned out to be 1.94 °C. Also, the IC50 in experiment [2], in [3], in experiment [4], in [5] and in experiment [6] was above 100 µM in each case. Also, the inhibition result in experiment [7], in experiment [8], in experiment [9] and in [10] was “Active” each time.

For `COc1cccc2c1O[C@@](C)(CCC(=O)O)[C@@H]1CC[C@@H](CCCN)O[C@@H]21`, in [1], the ΔTm is 0.17 °C.

Regarding `O=C(O)CN(Cc1ccc(Cl)cc1)C(=O)c1cnc(N2CCC[C@H]2COc2ccc(Cl)cc2)nc1CCc1ccccc1`, in experiment [1], the ΔTm is 7.92 °C. The IC50 in experiment [2] turned out to be 45.6 µM; in experiment [3] it was 88.1 µM; in [4] it was 52.7 µM; in experiment [5], 25.5 µM; in [6], 44.3 µM. In addition, the “Ratio IC50” value is 2.2 in [11]; 1.1 in [12]; 1.9 in [13]; 3.9 in experiment [14]; 1.6 in [15].

Consider `CS(=O)(=O)Cc1cccc(C(=O)NS(=O)(=O)c2ccc(S(C)(=O)=O)cc2)c1`, for which the ΔTm in experiment [1] is 0.29 °C.
